Consider two molecules from ChEMBL document CHEMBL6114953, “De novo discovery of cyclic peptide inhibitors of IL-11 signaling” (Bioorg Med Chem, 2025).

In assay [1] the target is T1, Interleukin-11 (Homo sapiens, UniProt P20809).
T1 sequence (P20809 whole entry): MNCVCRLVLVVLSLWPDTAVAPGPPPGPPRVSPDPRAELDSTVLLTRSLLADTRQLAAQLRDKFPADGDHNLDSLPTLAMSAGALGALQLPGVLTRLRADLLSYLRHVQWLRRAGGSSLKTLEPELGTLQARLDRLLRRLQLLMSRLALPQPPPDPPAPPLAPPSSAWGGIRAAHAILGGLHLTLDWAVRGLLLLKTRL
Nature of the assay: Binding affinity to CAP chip-immobilized IL-11 (unknown origin) assessed as dissociation constant by SPR analysis.

Assay [2] is described as follows: Inhibition of his-tagged recombinant human IL-11 (22 to 199 residues) expressed in HEK293 cells/biotinylated recombinant human IL-11Ralpha (24 to 370 residues) expressed in HEK293 cells incubated for 1 hr by AlphaLISA assay. The class given is cell-based.
A short description of assay [3]: Binding affinity to CAP chip-immobilized IL-6 (unknown origin) by SPR analysis. As to conditions: Homo sapiens.
Assay [4] concerns the target T2, Interleukin-11 receptor subunit alpha (Homo sapiens) (UniProt Q14626).
T2 sequence (whole entry): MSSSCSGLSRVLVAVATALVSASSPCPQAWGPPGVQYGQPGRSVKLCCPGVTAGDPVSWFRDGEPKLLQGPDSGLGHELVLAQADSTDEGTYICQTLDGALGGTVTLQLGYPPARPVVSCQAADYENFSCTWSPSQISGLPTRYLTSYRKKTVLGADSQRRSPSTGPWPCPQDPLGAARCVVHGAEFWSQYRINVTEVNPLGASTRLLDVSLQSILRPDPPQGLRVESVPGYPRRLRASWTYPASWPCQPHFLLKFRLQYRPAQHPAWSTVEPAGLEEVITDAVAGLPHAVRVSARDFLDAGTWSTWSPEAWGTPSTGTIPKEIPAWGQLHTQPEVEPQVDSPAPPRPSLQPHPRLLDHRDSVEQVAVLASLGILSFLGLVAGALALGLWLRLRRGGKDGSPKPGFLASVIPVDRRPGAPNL
Nature of the assay: Binding affinity to CAP chip-immobilized biotinylated recombinant human IL-11Ralpha by SPR analysis.

The species named for assay [5] is Homo sapiens. The experiment in a line: Binding affinity to CAP chip-immobilized IL-6R (unknown origin) by SPR analysis.

Structures are written as SMILES. Calls of active or inactive are those of the source. The rule behind the calls is not given here. Where a SMILES comes first, the peptide text is derived from it. Bridges are numbered along the chain shown (N, C = ends).

Regarding `CSCC[C@@H]1NC(=O)[C@H](Cc2c[nH]cn2)NC(=O)[C@H](CO)NC(=O)[C@@H](NC(=O)[C@H](Cc2c[nH]c3ccccc23)NC(=O)[C@H](Cc2ccc(O)cc2)NC(C)=O)CSSC[C@@H](C(=O)N[C@@H](Cc2c[nH]c3ccccc23)C(=O)N[C@@H](CCCNC(=N)N)C(N)=O)NC(=O)[C@H](C(C)C)NC(=O)[C@H]([C@@H](C)O)NC(=O)[C@H]([C@@H](C)O)NC(=O)[C@H](Cc2ccc(O)cc2)NC(=O)[C@H](Cc2ccc(O)cc2)NC1=O` (Ac-YWCSHMYYTTVCWR-NH2; disulfide 3-12), the Kd in assay [1] was 140 nM. Besides, the Ki in assay [2] was 300 nM. The result in assay [3], in assay [4] and in assay [5] was inactive.
For the molecule `CC(C)[C@@H]1NC(=O)[C@H](CCCNC(=N)N)NC(=O)[C@@H]2CCCN2C(=O)[C@H](CC(=O)O)NC(=O)[C@H](Cc2ccc(O)cc2)NC(=O)[C@H](Cc2c[nH]c3ccccc23)NC(=O)CNC(=O)[C@@H](NC(=O)[C@H](Cc2ccc(O)cc2)NC(=O)[C@H](Cc2c[nH]c3ccccc23)NC(=O)[C@H](Cc2ccccc2)NC(=O)[C@H](CCC(=O)O)NC(=O)[C@@H](NC(=O)[C@@H](NC(=O)[C@H](CCC(=O)O)NC(=O)[C@H](C)N)[C@@H](C)O)C(C)C)CSSC[C@@H](C(=O)N[C@@H](CO)C(=O)N[C@@H](Cc2ccc(O)cc2)C(N)=O)NC(=O)CNC1=O` (H-AETVEFWYCGWYDPRVGCSY-NH2; disulfide 9-18), the Kd in assay [1] turned out to be 2600 nM. Also, the Ki in assay [2] turned out to be 500 nM. The result in assay [3], in assay [4] and in assay [5] was inactive.
